Where two headings read alike, the source gives them in different places.
Experiments:
Bcl-2 = Bcl-2 (Homo sapiens, UniProt P10415); assay: Bcl-2 binding affinity analysis (fluorescence polarization binding assay)
Summary of the method: (§1)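 Quantitative binding by polarized-fluorescence detection; in vitro, no cells involved.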

Bcl-xL = Bcl-xL (Homo sapiens, UniProt Q07817); assay: Bcl-xL binding affinity analysis (fluorescence polarization binding assay); design: scale not given here
Summary of the method: as §1

[1] = test system: RL Human Follicular Lymphoma Cell Line; assay: Alamar blue cytotoxicity assay in RL cells; format: cell-based; details: Homo sapiens, 72 h incubation, read-out: Bcl RL Alamar Blue IC50
Procedure: (§2) When RL-cells are exposed to isoxazolidine compounds of the present invention, the inhibitors show a dose-dependent cell-killing in the Alamar blue cytoxicity assay with IC50 values of from about 100 μM to about 1 μM (See Examples). When Panc1 cells are exposed to the isoxazolidine compounds of the present invention in combination with camptothecin, the inhibitors show a synergistic dose-dependent cell killing in the propidium iodide exclusion cell survival assay with IC50 values of from about 100 μM to about 1 μM (See Examples).
• 1) Using 96 well plates, compounds were serially diluted in DMSO from 9 mM to 4 uM • 2) Assay plates were prepared by diluting samples 310 fold into 150 ul of medium containing 30,000 cells/well resulting in a final DMSO concentration of 0.3% and a concentration range from 29 uM to 0.013 uM for each compound. • 3) Plates were incubated at 37 C and 5% CO2 for 72 h • 4) After 72 h, Alamar blue reagent was added to each well and plates read according to manufacturer's instructions
In vitro cytotoxicity data for RL cells is presented below for various compounds of the invention.

[2] = test system: Human Pancreatic Cancer Cell Line Panc1; assay: Cell death assay (propidium iodide/Hoechst) in Panc1 cells with or without camptothecin; format: cell-based; details: 72 hours, % cell death by propidium iodide/Hoechst
Procedure: as §2
• 1) Compounds were serially diluted in DMSO from a 9 mM stock to a final concentration of 0.004 mM in a 96 well plate. • 2) Assay plates were prepared by diluting compounds 310 fold into 150 ul of medium containing 10,000 cells/well, with or without 3 uM Camptothecin, resulting in a final DMSO concentration of 0.3% and a compound concentration range from 29 uM to […] for each compound. • 3) Assay plates were incubated at 37 C, 5% CO2 for 72 hours. • 4) After 72 hours, propidium iodide and Hoechst dye were added to each well according to manufacturer's instruction. • 5) Plates were imaged on a fluorescence microscope at wavelengths Ex560/Em650 (Propidium iodide) and Ex360/Em465 (Hoechst) • 6) MetaMorph imaging software was used to determine % cell death by dividing the number of propidium iodide stained cells (dead cells) by the number of Hoechst stained cells (all cells), multipled by 100, in each field.
Panc1 invitro cellular data is presented below for various compounds of the invention.

[3] = Homo sapiens, PANC-1, without camptothecin, read-out: Panc1 − Cpt IC50
[4] = with 3 uM Camptothecin, read-out: Panc1 + Cpt IC50
[5] = without camptothecin, read-out: Panc1 − Cpt IC50

Bcl-xL, sequence (Q07817 whole entry): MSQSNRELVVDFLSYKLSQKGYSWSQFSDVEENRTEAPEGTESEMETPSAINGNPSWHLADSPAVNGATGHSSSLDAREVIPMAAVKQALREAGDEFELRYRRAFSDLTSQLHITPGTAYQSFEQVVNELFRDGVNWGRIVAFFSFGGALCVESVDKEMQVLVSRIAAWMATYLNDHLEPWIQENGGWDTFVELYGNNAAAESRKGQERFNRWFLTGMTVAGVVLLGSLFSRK
Bcl-2, sequence (P10415 whole entry): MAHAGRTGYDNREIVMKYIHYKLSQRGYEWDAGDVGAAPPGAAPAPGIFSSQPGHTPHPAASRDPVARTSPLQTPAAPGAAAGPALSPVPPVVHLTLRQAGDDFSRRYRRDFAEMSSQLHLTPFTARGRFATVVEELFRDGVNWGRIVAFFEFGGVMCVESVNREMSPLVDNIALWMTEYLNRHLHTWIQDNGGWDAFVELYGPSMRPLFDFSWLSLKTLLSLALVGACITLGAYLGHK

Ki (Bcl-2) [nM] | Bcl-XL binding affinity Ki (Bcl-xL) | Compound | IC50 [1] [µM] | IC50 [2, 3] [nM] | IC50 [2, 4] [nM] | IC50 [2, 5] [nM]
< 800 | ♯ | C[C@@H]1[C@@H](NC(=O)[C@@H]2C([C@H](C)O)[C@H](CO)ON2Cc2cccc(CN(CCN(C)C)Cc3ccccc3OC(F)(F)F)c2)C[C@H]2C[C@@H]1C2(C)C (some centres unmarked) [Compound 365] | < 2 |  |  | 
< 800 | ♯ | CCCCCCCN(CCN(C)C)Cc1cccc(CN2O[C@@H](CO)C([C@H](C)O)[C@H]2C(=O)N[C@H]2C[C@H]3C[C@@H]([C@@H]2C)C3(C)C)c1 (some centres unmarked) [Compound 355] | 2 to 5 |  |  | 
< 800 | ♯ | CC(O)C1C(CO)ON(Cc2cccc(CN(CCN(C)C)Cc3cccc(F)c3)c2)C1C(=O)NC1CC2CC(C1C)C2(C)C (centres unmarked) [Compound 356] | > 5 |  |  | 
< 800 | ♯ | COc1ccc(COc2c(CN3O[C@@H](CO)[C@@H]([C@H](C)O)[C@H]3C(=O)N[C@H]3C[C@H]4C[C@@H]([C@@H]3C)C4(C)C)cccc2-c2ccc(C(=O)N(C)C)cc2)cc1 [Compound 166] |  | > 2500 | < 1300 | 
< 800 | ♯ | COC(=O)CCNC(=O)c1cccc(-c2cccc(CN3O[C@@H](CO)[C@@H]([C@H](C)O)[C@H]3C(=O)N[C@H]3C[C@H]4C[C@@H]([C@@H]3C)C4(C)C)c2)c1 [Compound 149] |  | > 2500 | 1800 to 2500 | 
< 800 | ♯ | COc1c(CN2O[C@@H](CO)[C@@H]([C@H](C)O)[C@H]2C(=O)N[C@H]2C[C@H]3C[C@@H]([C@@H]2C)C3(C)C)cccc1-c1cccc(C(=O)N[C@H](CN(C)C)CC(C)(C)C)c1 [Compound 479] |  | 1800 to 2500 | 1300 to 1800 | 
< 800 | ♯ | C[C@@H]1[C@@H](NC(=O)[C@@H]2[C@H]([C@H](C)O)[C@H](CO)ON2Cc2cccc(-c3cccc(C(=O)NCCN(C)C)c3)c2OCC2CC2)C[C@H]2C[C@@H]1C2(C)C [Compound 497] |  | > 2500 | > 2500 | 
< 800 | ♯ | CC(O)C1C(CO)ON(Cc2cccc(CN(CCN3CCCCCC3)Cc3ccccc3)c2)C1C(=O)NC1CC2CC(C1C)C2(C)C (centres unmarked) [Compound 427] |  | > 2500 | > 2500 | 
< 800 | ♯ | CC(O)C1C(CO)ON(Cc2cccc(CN(CCN3CCCCC3)Cc3ccccc3)c2)C1C(=O)NC1CC2CC(C1C)C2(C)C (centres unmarked) [Compound 433] |  | > 2500 | > 2500 | 
< 800 | ♯ | CCOc1c(CN2O[C@@H](CO)[C@@H]([C@H](C)O)[C@H]2C(=O)N[C@H]2C[C@H]3C[C@@H]([C@@H]2C)C3(C)C)cccc1-c1cccc(C(=O)NCCN(C)C)c1 [Compound 495] |  | > 2500 | > 2500 | 
< 800 | ♯ | CCC(C)C(CN(C)C)N(Cc1cccc(CN2OC(CO)C(C(C)O)C2C(=O)NC2CC3CC(C2C)C3(C)C)c1)Cc1ccccc1Br (centres unmarked) [Compound 416] |  | > 2500 | > 2500 | 
< 800 | ♯ | CC(O)C1C(CO)ON(Cc2cccc(CN(CCN3CCOCC3)Cc3ccccc3)c2)C1C(=O)NC1CC2CC(C1C)C2(C)C (centres unmarked) [Compound 434] |  | > 2500 | > 2500 | 
< 800 | ♯ | CC(O)C1C(CO)ON(Cc2cccc(C(=O)NC(CC3CCCCC3)CN(C)C)c2)C1C(=O)NC1CC2CC(C1C)C2(C)C (centres unmarked) [Compound 501] |  | 1800 to 2500 | 1300 to 1800 | 
< 800 | ♯ | CC(O)C1C(CO)ON(Cc2cccc(CN(CCN(C)C)Cc3ccc(F)cc3)c2)C1C(=O)NC1CC2CC(C1C)C2(C)C (centres unmarked) [Compound 376] |  | 1800 to 2500 | 1300 to 1800 | 
< 800 | ♯ | COc1ccc(CN(CCN(C)C)Cc2cccc(CN3OC(CO)C(C(C)O)C3C(=O)NC3CC4CC(C3C)C4(C)C)c2)cc1 (centres unmarked) [Compound 387] |  | > 2500 | > 2500 | 
< 800 | ♯ | CC(O)C1C(CO)ON(Cc2cccc(CNC(CN(C)C)C3CCCCC3)c2)C1C(=O)NC1CC2CC(C1C)C2(C)C (centres unmarked) [Compound 443] |  | > 2500 | > 2500 | 

Ki (Bcl-2) [nM] | Bcl-XL binding affinity Ki (Bcl-xL) | Compound | IC50 [1] [µM] | IC50 [2, 3] [nM] | IC50 [2, 4] [nM] | IC50 [2, 5] [nM]
< 800 | ♯ | CC(C)CC(CN(C)C)N(Cc1cccc(CN2OC(CO)C(C(C)O)C2C(=O)NC2CC3CC(C2C)C3(C)C)c1)CC1CCCCC1 (centres unmarked) [Compound 303] |  | > 2500 | > 2500 | 
< 800 | ♯ | CC(O)C1C(CO)ON(Cc2cccc(CN(CCN(C)C)Cc3cccs3)c2)C1C(=O)NC1CC2CC(C1C)C2(C)C (centres unmarked) [Compound 358] |  | > 2500 | > 2500 | 
< 800 | ♯ | C[C@@H]1[C@@H](NC(=O)[C@@H]2[C@H]([C@H](C)O)[C@H](CO)ON2Cc2cccc(N(CCc3ccccc3)CCN(C)C)c2)C[C@H]2C[C@@H]1C2(C)C [Compound 578] |  | > 2500 | 1800 to 2500 | 
< 800 | ♯ | CC(C)CC(CN(C)C)N(Cc1cccc(CN2OC(CO)C(C(C)O)C2C(=O)NC2CC3CC(C2C)C3(C)C)c1)Cc1ccccc1I (centres unmarked) [Compound 318] |  | > 2500 | > 2500 | 
< 800 | ♯ | CC(C)C(CN(C)C)NCc1cccc(CN2OC(CO)C(C(C)O)C2C(=O)NC2CC3CC(C2C)C3(C)C)c1 (centres unmarked) [Compound 463] |  |  |  | > 2500
 |  | COC(=O)CCNC(=O)c1cccc(-c2cccc(CN3O[C@@H](CO)[C@@H]([C@H](C)O)[C@H]3C(=O)N[C@H]3C[C@H]4C[C@@H]([C@@H]3C)C4(C)C)c2)c1 [Compound 190] | 2 to 5 |  |  | 
< 800 | ♯ | CC(C)C[C@@H](CN(C)C)N(Cc1cccc(CN2O[C@@H](CO)C([C@H](C)O)[C@H]2C(=O)N[C@H]2C[C@H]3C[C@@H]([C@@H]2C)C3(C)C)c1)Cc1c(O)cccc1F (some centres unmarked) [Compound 306] |  | > 2500 | 1300 to 1800 | 
< 800 | ♯ | CC(O)C1C(CO)ON(Cc2cccc(CN(C)C(Cc3ccccc3)CN(C)C)c2)C1C(=O)NC1CC2CC(C1C)C2(C)C (centres unmarked) [Compound 464] |  | > 2500 | > 2500 | 
< 800 | ♯ | CC(O)C1C(CO)ON(Cc2cccc(C(=O)NC(Cc3ccccc3)CN(C)C)c2)C1C(=O)NC1CC2CC(C1C)C2(C)C (centres unmarked) [Compound 508] |  | > 2500 | > 2500 | 
< 800 | ♯ | CC(O)C1C(CO)ON(Cc2cccc(CNC(CC3CCCCC3)CN(C)C)c2)C1C(=O)NC1CC2CC(C1C)C2(C)C (centres unmarked) [Compound 451] |  |  |  | > 2500
< 800 | ♯ | CC(C)C(CN(C)C)NCc1cccc(CN2OC(CO)C(C(C)O)C2C(=O)NC2CC3CC(C2C)C3(C)C)c1 (centres unmarked) [Compound 462] |  | > 2500 | > 2500 | 
< 800 | ♯ | CC(O)C1C(CO)ON(Cc2cccc(CN(Cc3ccccc3)C(Cc3ccccc3)CN(C)C)c2)C1C(=O)NC1CC2CC(C1C)C2(C)C (centres unmarked) [Compound 423] |  | > 2500 | > 2500 | 
< 800 | ♯ | CCOc1c(CN2O[C@@H](CO)[C@@H]([C@H](C)O)[C@H]2C(=O)N[C@H]2C[C@H]3C[C@@H]([C@@H]2C)C3(C)C)cccc1-c1cccc(C(=O)N[C@H](CC(C)C)CN(C)C)c1 [Compound 494] |  | > 2500 | > 2500 | 
< 800 | ♯ | CC(O)C1C(CO)ON(Cc2cccc(CN(CCN(C)C)Cc3ccsc3)c2)C1C(=O)NC1CC2CC(C1C)C2(C)C (centres unmarked) [Compound 347] |  | > 2500 | > 2500 | 
< 800 | ♯ | CC(C)CC(CN(C)C)N(Cc1cccc(O)c1)Cc1cccc(CN2OC(CO)C(C(C)O)C2C(=O)NC2CC3CC(C2C)C3(C)C)c1 (centres unmarked) [Compound 310] |  | > 2500 | 1800 to 2500 | 
